Literature values as cited in US12686008B2, “Microfluidic device having specifically designed detection chambers” (Bifrost Biosystems Inc., priority 2020, dated 2026).
Where no end group is shown, it is not given here.

Conditions: literature values, refs [18, 19]; test organism not given

Substance | MIC
LL-37 | 1.5 µmol/L
VDKPPYLPRPRPPRRIYNR-NH2 [Oncocin] | 0.42 µmol/L
